Results from ChEMBL document CHEMBL1124916, “Neural networks applied to quantitative structure-activity relationship analysis” (1990).

How the values were obtained:
Format in all cases: functional
Mus musculus [1] = organism: Mus musculus; test: Optimal Dose (OD) which cause maximum increase in the life span, after singular injection at log (1/C).
Mus musculus [2] = organism: Mus musculus; test: Minimum Effective Dose (MED) which cause 40% increase in life span, after singular injection at log (1/C).
Mus musculus [3] = organism: Mus musculus; test: Optimal Dose (OD) which cause maximum increase in the life span, after chronic injection at log (1/C).
Mus musculus [4] = organism: Mus musculus; test: Minimum Effective Dose (MED) which cause 40% increase in life span, after chronic injection at log (1/C).

Row | Structure (SMILES) | OD (Mus musculus [1]) | MED (Mus musculus [2]) | OD (Mus musculus [3]) | MED (Mus musculus [4])
1 | CCC1=C(N2CC2)C(=O)C(CCOC(N)=O)=C(N2CC2)C1=O | 4.88 | 5.98 | 5.48 | 6.25
2 | COCCC1=C(N2CC2)C(=O)C(CCOC)=C(N2CC2)C1=O | 4.71 | 5.18 | 5.31 | 5.69
3 | CC1=C(N2CC2)C(=O)C(C(C)COC(N)=O)=C(N2CC2)C1=O (stereo not given) | 5.31 | 5.93 | 5.71 | 6.41
4 | COCCOC(COC(N)=O)C1=C(N2CC2)C(=O)C(C)=C(N2CC2)C1=O (stereo not given) | 4.96 | 5.45 | 5.39 | 6.03
5 | CCC1=C(N2CC2)C(=O)C(C(COC(N)=O)OC)=C(N2CC2)C1=O (stereo not given) | 4.92 | 5.62 | 5.22 | 6.16
6 | CC(C)C1=C(N2CC2)C(=O)C=C(N2CC2)C1=O | 4.59 | 5.16 | 5.37 | 5.68
7 | CC1=C(N2CC2)C(=O)C(CCCOC(N)=O)=C(N2CC2)C1=O | 5.48 | 5.55 | 5.93 | 6.18
8 | CCC1=C(N2CC2)C(=O)C(C)=C(N2CC2)C1=O | 4.52 | 5.16 | 5.37 | 5.86
9 | CC1=C(N2CC2)C(=O)C(N2CC2)=C(N2CC2)C1=O | 5.69 | 6.54 | 6.21 | 6.77
10 | CCC(COC(N)=O)C1=C(N2CC2)C(=O)C(C)=C(N2CC2)C1=O (stereo not given) | 5.2 | 6.03 | 5.66 | 6.18
11 | CC1=C(N2CC2)C(=O)C(C)=C(N2CC2)C1=O | 4.79 | 5.36 | 5.36 | 5.66
12 | CCC(OC)C1=C(N2CC2)C(=O)C(C)=C(N2CC2)C1=O (stereo not given) | 4.84 | 5.26 | 5.33 | 5.68
13 | CC1=C(N2CC2)C(=O)C(CCO)=C(N2CC2)C1=O | 5.25 | 5.89 | 5.79 | 6.39
14 | CC(C)C1=C(N2CC2)C(=O)C(C(C)C)=C(N2CC2)C1=O | 4.14 | 4.36 | 4.59 | 4.77
15 | O=C1C=C(N2CC2)C(=O)C(N2CC2)=C1N1CC1 [TRIAZIQUONE] | 5.74 | 6.02 | 6.19 | 6.45
16 | CC1=C(N2CC2)C(=O)C(CCOC(N)=O)=C(N2CC2)C1=O | 5.46 | 5.83 | 5.75 | 6.21
17 | CCC1=C(N2CC2)C(=O)C(CC)=C(N2CC2)C1=O | 4.79 | 4.94 | 5.09 | 5.46
18 | CC1=C(N2CC2)C(=O)C(Cc2ccccc2)=C(N2CC2)C1=O | 4.26 | 4.74 | 4.69 | 4.85
19 | CC1=C(N2CC2)C(=O)C(C(C)C)=C(N2CC2)C1=O | 4.69 | 4.96 | 5.21 | 5.6
20 | COCCC1=C(N2CC2)C(=O)C(C)=C(N2CC2)C1=O | 5.12 | 5.19 | 5.42 | 5.57
